Data as given in patent US11046694B2, “Compounds and methods for treating bacterial infections” (Entasis Therapeutics, Inc., priority 2018, dated 2021).
Converted amounts (≈) assume the structure as drawn. Structures can show the parent of a compound that is named as a salt. Where two headings read alike, the source gives them in different places.

Legend:
[1] = biological target: P. aeruginosa PBP1a (Pseudomonas aeruginosa, UniProt Q07806); format: biochemical; conditions: P. aeruginosa PBP1a 60 nM, BOCILLIN FL 30 nM, pH 7.0
P. aeruginosa PBP1a, sequence (Q07806 whole entry): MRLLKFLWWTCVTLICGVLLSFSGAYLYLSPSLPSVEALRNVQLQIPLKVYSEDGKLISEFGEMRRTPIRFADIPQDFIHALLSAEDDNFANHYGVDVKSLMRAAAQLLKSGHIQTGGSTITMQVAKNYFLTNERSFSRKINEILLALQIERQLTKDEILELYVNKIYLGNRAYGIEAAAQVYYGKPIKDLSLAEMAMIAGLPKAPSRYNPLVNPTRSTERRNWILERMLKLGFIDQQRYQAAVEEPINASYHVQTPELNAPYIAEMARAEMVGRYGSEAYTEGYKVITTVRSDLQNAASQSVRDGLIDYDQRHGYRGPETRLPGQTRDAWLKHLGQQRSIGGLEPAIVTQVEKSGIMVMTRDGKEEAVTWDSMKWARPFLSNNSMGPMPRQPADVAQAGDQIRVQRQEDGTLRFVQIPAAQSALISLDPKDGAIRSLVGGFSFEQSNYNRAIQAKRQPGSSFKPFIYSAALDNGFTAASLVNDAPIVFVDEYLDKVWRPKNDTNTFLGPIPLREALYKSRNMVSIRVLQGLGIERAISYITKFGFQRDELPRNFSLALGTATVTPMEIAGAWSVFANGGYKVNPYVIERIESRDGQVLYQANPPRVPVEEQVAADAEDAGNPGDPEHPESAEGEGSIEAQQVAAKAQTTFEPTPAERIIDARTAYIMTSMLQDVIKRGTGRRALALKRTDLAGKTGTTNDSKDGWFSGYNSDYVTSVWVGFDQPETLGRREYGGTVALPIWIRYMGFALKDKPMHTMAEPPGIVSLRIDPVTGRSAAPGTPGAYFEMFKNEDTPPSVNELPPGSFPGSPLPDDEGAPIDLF

[2] = biological target: P. aeruginosa PBP3 (Pseudomonas aeruginosa, UniProt G3XD46); format: biochemical; conditions: P. aeruginosa PBP3 60 nM, BOCILLIN FL 30 nM, pH 7.0
P. aeruginosa PBP3, sequence (G3XD46 whole entry): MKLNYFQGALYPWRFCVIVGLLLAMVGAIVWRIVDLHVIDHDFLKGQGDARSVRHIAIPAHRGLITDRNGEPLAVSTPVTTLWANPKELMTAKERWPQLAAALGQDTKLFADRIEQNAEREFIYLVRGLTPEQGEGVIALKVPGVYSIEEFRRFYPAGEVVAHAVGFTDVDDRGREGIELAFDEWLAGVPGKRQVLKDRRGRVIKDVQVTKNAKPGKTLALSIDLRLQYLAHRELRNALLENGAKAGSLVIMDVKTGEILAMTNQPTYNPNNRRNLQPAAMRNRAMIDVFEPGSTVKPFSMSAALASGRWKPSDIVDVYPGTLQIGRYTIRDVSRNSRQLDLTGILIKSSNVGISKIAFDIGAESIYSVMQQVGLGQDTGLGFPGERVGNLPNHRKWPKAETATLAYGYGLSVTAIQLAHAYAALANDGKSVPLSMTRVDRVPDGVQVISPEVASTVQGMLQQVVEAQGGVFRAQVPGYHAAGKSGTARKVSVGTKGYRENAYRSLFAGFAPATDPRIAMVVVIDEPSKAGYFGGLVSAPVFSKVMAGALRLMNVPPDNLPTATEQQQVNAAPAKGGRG

[3] = test system: A. baumannii (ARC3495); experiment: MIC against A. baumannii; conditions: Acinetobacter baumannii, read-out: A. baumannii MIC (ARC3495) (mg/L)
[4] = test system: E. coli (ATCC25922); experiment: MIC against E. coli; conditions: Escherichia coli, ATCC25922, read-out: E. coli MIC (ATCC25922) (mg/L)
[5] = test system: K. pneumoniae (ATCC700603); experiment: MIC against K. pneumoniae; conditions: Klebsiella pneumoniae, ATCC700603, read-out: K. pneumoniae MIC (ATCC700603)
[6] = test system: P. aeruginosa WT (PAO1); experiment: MIC, CLSI broth microdilution, P. aeruginosa; format: cell-based; conditions: Pseudomonas aeruginosa
[7] = PAO1, CLSI broth microdilution, read-out: P. aeruginosa WT (PAO1) MIC

Row | SMILES | PBP1a acylation rate, k(on) (M^−1 · s^−1) [1] | PBP3 acylation rate, k(on) (M^−1 · s^−1) [2] | MIC [3] | MIC [4] | MIC [5] | MIC [6, 7] | MIC ([6]; PAO1, read-out: P. aeruginosa WT (PAO1) MIC (mg/L))
1 | CN/C(=N\OC(=O)NCc1cnn(C)c1)[C@@H]1c2c(cnn2C)[C@@H]2CN1C(=O)N2OS(=O)(=O)O (racemic) [Example 15, (4R,8S)-1-methyl-8-((Z)—N-methyl-N′-((((1-methyl-1H-pyrazol-4-yl)methyl)carbamoyl)oxy)carbamimidoyl)-6-oxo-4,8-dihydro-1H-4,7-methanopyrazolo[3,4-e][1,3]diazepin-5(6H)-yl hydrogen sulfate] | ** (** represents a k(on) of 100 to 10,000 M^−1 · s^−1) | *** (*** represents a k(on) > 10,000 M^−1 · s^−1) | > 16 mg/L | < 8 mg/L | > 16 µg/mL | > 16 mg/L | –
2 | CN/C(=N\OC(=O)NCCC(N)=O)[C@@H]1c2c(cnn2C)[C@@H]2CN1C(=O)N2OS(=O)(=O)O (racemic) [Example 16] | ** (** represents a k(on) of 100 to 10,000 M^−1 · s^−1) | *** (*** represents a k(on) > 10,000 M^−1 · s^−1) | > 16 mg/L | 8 to 16 mg/L (≈ 17.4 to 34.8 µM) | > 16 µg/mL | 8 to 16 mg/L (≈ 17.4 to 34.8 µM) | –
3 | CN/C(=N\OC(=O)NO)[C@@H]1c2c(cnn2C)[C@@H]2CN1C(=O)N2OS(=O)(=O)O (racemic) [Example 17] | ** (** represents a k(on) of 100 to 10,000 M^−1 · s^−1) | *** (*** represents a k(on) > 10,000 M^−1 · s^−1) | > 16 mg/L | 8 to 16 mg/L (≈ 19.7 to 39.5 µM) | 8 to 16 µg/mL (≈ 19.7 to 39.5 µM) | 8 to 16 mg/L (≈ 19.7 to 39.5 µM) | –
4 | CN/C(=N\OC(=O)NCCN)[C@@H]1c2c(cnn2C)[C@@H]2CN1C(=O)N2OS(=O)(=O)O (racemic) [Example 18, (4R,8S)-8-((Z)—N′-(((2-aminoethyl)carbamoyl)oxy)-N-methylcarbamimidoyl)-1-methyl-6-oxo-4,8-dihydro-1H-4,7-methanopyrazolo[3,4-e][1,3]diazepin-5(6H)-yl hydrogen sulfate] | ** (** represents a k(on) of 100 to 10,000 M^−1 · s^−1) | *** (*** represents a k(on) > 10,000 M^−1 · s^−1) | 8 to 16 mg/L | < 8 mg/L | 8 to 16 µg/mL | < 8 mg/L | –
5 | CN/C(=N\OC(=O)NCCCCN)[C@@H]1c2c(cnn2C)[C@@H]2CN1C(=O)N2OS(=O)(=O)O (racemic) [Example 19] | ** (** represents a k(on) of 100 to 10,000 M^−1 · s^−1) | *** (*** represents a k(on) > 10,000 M^−1 · s^−1) | 8 to 16 mg/L (≈ 17.4 to 34.7 µM) | 8 to 16 mg/L (≈ 17.4 to 34.7 µM) | > 16 µg/mL | < 8 mg/L | –
6 | CNC(=O)O/N=C(\NC)[C@@H]1c2c(cnn2C)[C@@H]2CN1C(=O)N2OS(=O)(=O)O (racemic) [Example 20] | ** (** represents a k(on) of 100 to 10,000 M^−1 · s^−1) | *** (*** represents a k(on) > 10,000 M^−1 · s^−1) | 8 to 16 mg/L (≈ 19.8 to 39.7 µM) | 8 to 16 mg/L (≈ 19.8 to 39.7 µM) | > 16 µg/mL | – | 8 to 16 mg/L (≈ 19.8 to 39.7 µM)
7 | CN/C(=N\OC(=O)N(C)C)[C@@H]1c2c(cnn2C)[C@@H]2CN1C(=O)N2OS(=O)(=O)O (racemic) [Example 21] | ** (** represents a k(on) of 100 to 10,000 M^−1 · s^−1) | *** (*** represents a k(on) > 10,000 M^−1 · s^−1) | > 16 mg/L | < 8 mg/L | > 16 µg/mL | > 16 mg/L | –
8 | CN/C(=N\OC(=O)NCC(=O)O)[C@@H]1c2c(cnn2C)[C@@H]2CN1C(=O)N2OS(=O)(=O)O (racemic) [Example 22] | ** (** represents a k(on) of 100 to 10,000 M^−1 · s^−1) | *** (*** represents a k(on) > 10,000 M^−1 · s^−1) | > 16 mg/L | < 8 mg/L | 8 to 16 µg/mL (≈ 17.9 to 35.8 µM) | 8 to 16 mg/L (≈ 17.9 to 35.8 µM) | –
9 | CN/C(=N\OC(=O)NCC(N)=O)[C@@H]1c2c(cnn2C)[C@@H]2CN1C(=O)N2OS(=O)(=O)O (racemic) [Example 23] | ** (** represents a k(on) of 100 to 10,000 M^−1 · s^−1) | *** (*** represents a k(on) > 10,000 M^−1 · s^−1) | > 16 mg/L | 8 to 16 mg/L (≈ 17.9 to 35.8 µM) | 8 to 16 µg/mL (≈ 17.9 to 35.8 µM) | 8 to 16 mg/L (≈ 17.9 to 35.8 µM) | –
10 | CN/C(=N\OC(=O)N[C@H]1CCNC1)[C@@H]1c2c(cnn2C)[C@@H]2CN1C(=O)N2OS(=O)(=O)O (racemic) [Example 24] | ** (** represents a k(on) of 100 to 10,000 M^−1 · s^−1) | *** (*** represents a k(on) > 10,000 M^−1 · s^−1) | 8 to 16 mg/L (≈ 17.4 to 34.9 µM) | 8 to 16 mg/L (≈ 17.4 to 34.9 µM) | 8 to 16 µg/mL (≈ 17.4 to 34.9 µM) | < 8 mg/L | –
11 | CN/C(=N\OC(=O)NCCCN)[C@@H]1c2c(cnn2C)[C@@H]2CN1C(=O)N2OS(=O)(=O)O (racemic) [Example 25] | ** (** represents a k(on) of 100 to 10,000 M^−1 · s^−1) | *** (*** represents a k(on) > 10,000 M^−1 · s^−1) | 8 to 16 mg/L (≈ 17.9 to 35.8 µM) | 8 to 16 mg/L (≈ 17.9 to 35.8 µM) | > 16 µg/mL | < 8 mg/L | –
12 | CN/C(=N\OC(=O)NC1CNC1)[C@@H]1c2c(cnn2C)[C@@H]2CN1C(=O)N2OS(=O)(=O)O (racemic) [Example 26] | ** (** represents a k(on) of 100 to 10,000 M^−1 · s^−1) | *** (*** represents a k(on) > 10,000 M^−1 · s^−1) | < 8 mg/L | < 8 mg/L | < 8 µg/mL | < 8 mg/L | –
13 | CN/C(=N\OC(=O)NCCC(=O)O)[C@@H]1c2c(cnn2C)[C@@H]2CN1C(=O)N2OS(=O)(=O)O (racemic) [Example 27] | ** (** represents a k(on) of 100 to 10,000 M^−1 · s^−1) | *** (*** represents a k(on) > 10,000 M^−1 · s^−1) | > 16 mg/L | < 8 mg/L | > 16 µg/mL | 8 to 16 mg/L (≈ 17.3 to 34.7 µM) | –
14 | CN/C(=N\OC(=O)NCC1CCNCC1)[C@@H]1c2c(cnn2C)[C@@H]2CN1C(=O)N2OS(=O)(=O)O (racemic) [Example 28] | ** (** represents a k(on) of 100 to 10,000 M^−1 · s^−1) | *** (*** represents a k(on) > 10,000 M^−1 · s^−1) | 8 to 16 mg/L (≈ 16.4 to 32.9 µM) | < 8 mg/L | > 16 µg/mL | < 8 mg/L | –
15 | CN/C(=N\OC(=O)NC1CCNCC1)[C@@H]1c2c(cnn2C)[C@@H]2CN1C(=O)N2OS(=O)(=O)O (racemic) [Example 29] | ** (** represents a k(on) of 100 to 10,000 M^−1 · s^−1) | *** (*** represents a k(on) > 10,000 M^−1 · s^−1) | 8 to 16 mg/L (≈ 16.9 to 33.9 µM) | 8 to 16 mg/L (≈ 16.9 to 33.9 µM) | > 16 µg/mL | < 8 mg/L | –
16 | CN/C(=N\OC(=O)N[C@H]1CC[C@H](N)CC1)[C@@H]1c2c(cnn2C)[C@@H]2CN1C(=O)N2OS(=O)(=O)O (racemic) [Example 30] | ** (** represents a k(on) of 100 to 10,000 M^−1 · s^−1) | *** (*** represents a k(on) > 10,000 M^−1 · s^−1) | 8 to 16 mg/L (≈ 16.4 to 32.9 µM) | 8 to 16 mg/L (≈ 16.4 to 32.9 µM) | > 16 µg/mL | < 8 mg/L | –
17 | CN/C(=N\OC(=O)NCCCC[C@H](N)C(=O)O)[C@@H]1c2c(cnn2C)[C@@H]2CN1C(=O)N2OS(=O)(=O)O (racemic) [Example 31] | ** (** represents a k(on) of 100 to 10,000 M^−1 · s^−1) | *** (*** represents a k(on) > 10,000 M^−1 · s^−1) | > 16 mg/L | < 8 mg/L | > 16 µg/mL | 8 to 16 mg/L (≈ 15.4 to 30.9 µM) | –
18 | CN/C(=N\OC(=O)NCCCC[C@H](N)C(=O)OC(C)(C)C)[C@@H]1c2c(cnn2C)[C@@H]2CN1C(=O)N2OS(=O)(=O)O (racemic) [Example 32] | ** (** represents a k(on) of 100 to 10,000 M^−1 · s^−1) | *** (*** represents a k(on) > 10,000 M^−1 · s^−1) | > 16 mg/L | < 8 mg/L | > 16 µg/mL | > 16 mg/L | –
19 | CN/C(=N\OC(=O)NOC)[C@@H]1c2c(cnn2C)[C@@H]2CN1C(=O)N2OS(=O)(=O)O (racemic) [Example 33] | ** (** represents a k(on) of 100 to 10,000 M^−1 · s^−1) | *** (*** represents a k(on) > 10,000 M^−1 · s^−1) | 8 to 16 mg/L (≈ 19.1 to 38.2 µM) | 8 to 16 mg/L (≈ 19.1 to 38.2 µM) | > 16 µg/mL | 8 to 16 mg/L (≈ 19.1 to 38.2 µM) | –
20 | CN/C(=N\OC(=O)NC(C)(C)C(=O)O)[C@@H]1c2c(cnn2C)[C@@H]2CN1C(=O)N2OS(=O)(=O)O (racemic) [Example 34] | ** (** represents a k(on) of 100 to 10,000 M^−1 · s^−1) | *** (*** represents a k(on) > 10,000 M^−1 · s^−1) | > 16 mg/L | 8 to 16 mg/L (≈ 16.8 to 33.7 µM) | > 16 µg/mL | 8 to 16 mg/L (≈ 16.8 to 33.7 µM) | –
21 | CN/C(=N\O)[C@@H]1c2c(cnn2C/C=N/OCCN)[C@@H]2CN1C(=O)N2OS(=O)(=O)O (racemic) [Example 49, 1-((E)-2-((2-aminoethoxy)imino)ethyl)-8-((Z)—N′-hydroxy-N-methylcarbamimidoyl)-6-oxo-4,8-dihydro-1H-4,7-methanopyrazolo[3,4-e][1,3]diazepin-5(6H)-yl hydrogen sulfate] | * (* represents a k(on) < 100 M^−1 · s^−1) | *** (*** represents a k(on) > 10,000 M^−1 · s^−1) | 8 to 16 mg/L | 8 to 16 mg/L | 8 to 16 µg/mL | < 8 mg/L | –
